From article doi:10.1101/2025.02.19.639194v1, “Bioinformatics analysis identifies sequence determinants of enzymatic activity for the PHARC associated lipase ABHD12” (biorxiv, 2025)

Biological target: T1, CG15111 (Drosophila melanogaster, UniProt A1ZBH2)
T1 construct: gene Dmel\CG15111; full-length from adult fly cDNA, C-terminal FLAG tag, pRmHa3 vector, membrane fraction of transfected S2 cells
T1 sequence (A1ZBH2 1-393): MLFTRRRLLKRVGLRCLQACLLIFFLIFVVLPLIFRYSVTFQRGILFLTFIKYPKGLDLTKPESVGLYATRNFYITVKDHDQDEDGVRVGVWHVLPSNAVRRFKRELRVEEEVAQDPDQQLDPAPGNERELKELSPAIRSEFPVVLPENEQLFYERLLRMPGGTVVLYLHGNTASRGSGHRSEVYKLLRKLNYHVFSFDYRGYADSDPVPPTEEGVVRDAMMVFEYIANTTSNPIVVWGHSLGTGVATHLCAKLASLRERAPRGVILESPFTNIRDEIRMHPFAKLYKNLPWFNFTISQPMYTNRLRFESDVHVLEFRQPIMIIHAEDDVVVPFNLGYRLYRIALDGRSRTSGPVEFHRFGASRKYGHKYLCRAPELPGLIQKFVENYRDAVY
Assay: LC-MS lyso-PS lipase assay, release of C17:[…] FFA
Format: biochemical
Conditions: 100 uM substrate, 20 ug membrane fraction of S2 cells

Question: For `CCCCCC/C=C\CCCCCCCCC(=O)OC[C@@H](O)COP(=O)(O)OC[C@H](N)C(=O)O` [C17:1 lyso-PS], which “LC-MS lyso-PS lipase assay, release of C17:1 FFA” value is on record?
Answer: WT CG15111 had robust lyso-PS lipase activity
